Measured values taken from US20240165231A1, “CAR-T DELIVERY OF SYNTHETIC PEPTIDE THERAPEUTICS” (THE TRUSTEES OF THE UNIVERSITY OF PENNSYLVANIA, priority 2021, published 2024).
“Also recorded” adds a separate entry of the source.

How the values were obtained:
STING [1] = test: BMDC stimulation with liposome-encapsulated STING peptides, CD86 as surrogate for STING activity; type: cell-based, mouse; conditions: peptides in liposomes, 48 hours, flow cytometry
Protocol: Six cGAMP mimetic peptides (also referred to herein as STING peptides) were selected to test for activity. […] BDMCs were prepared by harvesting bone marrow from mouse hindlimbs and culturing in media (RPMI+10% FBS in 30 ng/mL GM-CSF) for 4 days. BMDCs were then stimulated with potential STING agonist peptides encapsulated in liposomes (Lipofectamine 2000) and returned to culture with GM-CSF for 48 hours. BMDCs were then evaluated for expression of CD86 by flow cytometry as a surrogate for STING activity. A schematic of the study design is provided in the left panel of FIG. 15.

TSA breast cancer cells = test: PD-L1 as readout of DNA damage response after liposomal PARPi mimetic peptides; type: cell-based; conditions: peptides in liposomes, 48 hours, flow cytometry
Protocol: PARP inhibitor peptides were computationally designed using methods as described in Example 2. Resulting PARP inhibitor (PARPi) mimetic peptides were encapsulated in liposomes and transfected into TSA breast cancer cells in vitro. 48 hours later, PD-L1 was assessed by flow cytometry as a readout of a DNA damage response. […] The PARP inhibitor olaparib was used as a positive control. […] In embodiments, the PARPi mimetic peptides may be introduced into a CAR construct for delivery to the tumor microenvironment via an engineered CAR-T cell.

STING [2] = test: ST2-stimulated, Ova-loaded BMDCs (WT or STING KO) co-cultured with OT-I T cells; type: cell-based, mouse; conditions: for OT-I T cell Granzyme B / OT-I T cell IFNγ / OT-I T cell Ki67: 48 hours
Protocol: Activity of the STING agonist peptide ST2 was further characterized. BMDCs from wild type (WT) or STING knock-out (KO) mice were prepared as described above. Following stimulation with ST2, cells were loaded with Ova (SIINFEKL) peptide and then extensively washed to remove residual peptide. OT-I T cells specific for the Ova peptide were then added to BMDC cultures to assess DC activity and ability to stimulate CD8 T cell responses. OT-I T cell expression of Granzyme B (an indicator of cell killing activity), Ki67 (an indicator of cell proliferation), and IFNγ were assessed by flow cytometry 48 hours later.

B16 cells = test: Cell death after liposomal SMACm6 with or without TNF; type: cell-based
Protocol: SMAC peptides were generated using a rational design strategy. Peptides with the best binding and potency (as measured by induction of cell death) in a dose response assay were selected for testing. SMAC mimetic peptide compositions were encapsulated in liposomes and transfected into B16 or KP (lung adenocarcinoma) cells in vitro at various concentrations in the presence of 20 ng/mL of TNF. 24 hours later, cell death was assessed by flow cytometry. Peptide 6 (SMACm6; SEQ ID NO: 8) was selected for further analysis based on dose response in multiple cell lines.
The SMACm6 mimetic peptides were encapsulated in liposomes and transfected into B16 or KP cells in vitro at various concentrations with or without 20 ng/mL TNF.

Substance: TFEYSG [ST3]
- CD86 expression in BMDCs (STING [1]): increased CD86 expression in BMDCs at statistically significant levels over negative control

Substance: LFIKP [ST5]
- CD86 expression in BMDCs (STING [1]): increased CD86 expression in BMDCs at statistically significant levels over negative control

Substance: CIFEFPGC [ST1C]
- CD86 expression in BMDCs (STING [1]): increased CD86 expression in BMDCs at statistically significant levels over negative control

Substance: APLPP [Pep1]
- PD-L1 expression (TSA breast cancer cells): increased PD-L1 expression

Substance: LFILSG [ST2]
- OT-I T cell Granzyme B (STING [2]; STING KO BMDCs): not significantly increased over liposome-only controls
- OT-I T cell IFNγ (STING [2]; STING KO BMDCs): not significantly increased over liposome-only controls
- OT-I T cell Ki67 (STING [2]; STING KO BMDCs): not significantly increased over liposome-only controls
- OT-I T cell Granzyme B (STING [2]; WT BMDCs): significantly increased
- OT-I T cell IFNγ (STING [2]; WT BMDCs): significantly increased
- OT-I T cell Ki67 (STING [2]; WT BMDCs): significantly increased
- STING dependence of T cell activation (STING [2]; WT versus STING KO): requires the STING pathway; also recorded: STING dependent
- CD86 expression in BMDCs (STING [1]): increased CD86 expression in BMDCs at statistically significant levels over negative control; also recorded: highest CD86 expression of the peptides tested

Substance: CAPLPPC [Pep1C]
- PD-L1 expression (TSA breast cancer cells): increased PD-L1 expression

Substance: VPHPP [Pep3]
- PD-L1 expression (TSA breast cancer cells): increased PD-L1 expression

Substance: MFEYG [ST4]
- CD86 expression in BMDCs (STING [1]): increased CD86 expression in BMDCs at statistically significant levels over negative control

Substance: IFEFPG [ST1]
- CD86 expression in BMDCs (STING [1]): increased CD86 expression in BMDCs at statistically significant levels over negative control

Substance: APLGG [Pep2]
- PD-L1 expression (TSA breast cancer cells): increased PD-L1 expression

Substance: AVPIGGGGGGGGGGGGGGGIPVA [SMACm6]
- relative cell death (B16 cells; absence of TNF): no cell death was observed
- relative cell death (B16 cells; presence of 20 ng/mL TNF, increasing concentrations): increasing relative cell death
- TNF dependence of cell death induction (B16 cells; presence or absence of TNF): dependent on TNF signaling
